This is an account of results in publication PMC1350429 (Purinergic Signalling, 2005).

The target in test [1] is T1, human P2Y1 receptor (Homo sapiens, UniProt P47900). As to the kind of experiment: [3H]MRS2279 binding assay, membranes from astrocytoma cells.
Test [2] deals with T1, human P2Y1 receptor. The test is classed as cell-based. The conditions noted are these: for Calcium response on addition of nucleotide: control experiments.
The target in test [3] is T1, human P2Y1 receptor. The test can be described thus: Yeast liquid growth assay. Type of test: cell-based.
A further test deals with P2Y1 receptor. The conditions noted are these: read-out: KB previously reported; cited from earlier work.
The mark [4] stands for this setting: read-out: Binding (Ki), Astrocytoma, competition for [3H]MRS2279 (8 nM) binding, 30 min, 4°C.
The mark [5] stands for this setting: read-out: Functional potency (EC50), Calcium (astrocytoma), 1321N1 astrocytoma cells, FlexStation, n = 3.

Where two headings read alike, the source gives them in different places.

T1 sequence (P47900 whole entry): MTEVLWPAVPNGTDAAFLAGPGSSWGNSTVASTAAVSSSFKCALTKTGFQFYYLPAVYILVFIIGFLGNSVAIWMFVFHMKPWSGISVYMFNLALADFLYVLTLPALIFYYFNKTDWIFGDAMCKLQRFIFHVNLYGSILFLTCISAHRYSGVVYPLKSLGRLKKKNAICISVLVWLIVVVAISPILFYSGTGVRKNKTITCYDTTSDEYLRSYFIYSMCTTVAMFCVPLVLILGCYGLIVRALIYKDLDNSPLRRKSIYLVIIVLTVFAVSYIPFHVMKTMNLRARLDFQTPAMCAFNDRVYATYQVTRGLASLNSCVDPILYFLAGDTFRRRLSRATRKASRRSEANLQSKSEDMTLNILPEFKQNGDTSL

As a reminder, the Ki is the dissociation constant of the complex between target and ligand, obtained from inhibition or displacement. What is called EC50 is the concentration giving half of the maximal effect. As for “2-hexylthioadenosine 5′-monophosphate [HT-AMP]”, the Ki on human P2Y1 receptor [1] (setting [4]) was 1700 nM. The half-maximal effective concentration (EC50) at human P2Y1 receptor [2] (setting [5]) worked out at 16 ± 11 nM.
For `Nc1ncnc2c1ncn2[C@@H]1O[C@H](COP(=O)(O)OP(=O)(O)OP(=O)(O)O)[C@@H](N)[C@H]1O` [3AM-ATP, 3′-amino-3′-deoxy-ATP], the EC50 on human P2Y1 receptor [2] (setting [5]) turned out to be 3000 ± 1500 nM.
Consider `Nc1ncnc2c1ncn2[C@@H]1O[C@H](COP(=O)(O)OP(=O)(O)O)[C@@H](O)[C@H]1O` [ADP, adenosine 5′-diphosphate], for which the figures for the concentration giving a half-maximal response (EC50) at human P2Y1 receptor [3] and at human P2Y1 receptor [2] were 1800 ± 650 nM and 58 ± 17 nM, respectively.
`Nc1ncnc2c1ncn2[C@@H]1O[C@H](COP(=O)(O)OP(=O)(O)S)[C@@H](O)[C@H]1O` (stereo partly drawn) [ADP-β-S, adenosine 5′-O-(2-thio-diphosphate)]: the EC50 turned out to be 21000 nM on human P2Y1 receptor [3] and 86 ± 42 nM at human P2Y1 receptor [2]. Besides, the inhibition constant Ki on human P2Y1 receptor [1] is 710 nM.
Take `CNc1ncnc2c1ncn2[C@H]1C[C@H](OP(=O)(O)O)[C@@H](COP(=O)(O)O)O1` [MRS2179, N^6-methyl-2′-deoxyadenosine-3′,5′-bisphosphate]: the “Effect on ADP concentration-response curve in yeast growth assay” value on human P2Y1 receptor [3] (MRS2179 fixed at 10^-6, 10^-5, 10^-4 M, agonist ADP) is “right shift in the curves”. The Kb at P2Y1 receptor is 177 nM; on human P2Y1 receptor [2] (KB (Schild analysis), antagonism of ADP-induced calcium mobilization), 164 nM.
For `Nc1ccc(CCSc2nc(N)c3ncn([C@@H]4O[C@H](COP(=O)(O)OP(=O)(O)OP(=O)(O)O)[C@@H](O)[C@H]4O)c3n2)cc1` [PAPET-ATP, 2-[4-amino (2-phenylethyl)thio]-ATP], the Ki on human P2Y1 receptor [1] (setting [4]) stood at 1100 nM. For the same molecule, the EC50 on human P2Y1 receptor [2] (setting [5]) worked out at 28 ± 13 nM.
Turning to `O=c1ccn([C@@H]2O[C@H](COP(=O)(O)OP(=O)(O)O)[C@@H](O)[C@H]2O)c(=O)[nH]1` [UDP, uridine 5’-diphosphate], the “Yeast growth in presence of nucleotide” value at human P2Y1 receptor [3] (data not shown) is recorded as “Basal growth was low”. Besides, the “Calcium response on addition of nucleotide” value on human P2Y1 receptor [2] is recorded as “did not induce any response”.
As for `O=c1ccn([C@@H]2O[C@H](COP(=O)(O)OP(=O)(O)OP(=O)(O)O)[C@@H](O)[C@H]2O)c(=O)[nH]1` [UTP, uridine 5’-triphosphate], the “Calcium response on addition of nucleotide” value at human P2Y1 receptor [2] is listed as “did not induce any response”.
